Data as given in US6841559B1, “Pyridinones to treat and prevent bacterial infections” (Washington University of St. Louis, priority 1999, dated 2005).

Key:
[1] = molecular target: periplasmic chaperone PapD (Escherichia coli, UniProt P15319); test: Direct binding assay on BIACORE 3000, immobilized PapD; settings: pyridinone 30 uM, 25° C., 30 μL/min, triplicate, Sensor Chip CM5
Protocol: (§1) The affinity of the following pyridinone: [drawing 73] for periplasmic chaperones PapD and FimC were investigated using a direct binding assay on BIACORE 3000. Methods
(§2) PapD (50 μg/ML in 10 mM NaAc pH 5.5) and FimC (50 μg/mL in 10 mM NaAc pH 5.5) were mobilized on Sensor Chi CM5 using standard thiol coupling procedure. This procedure was also employed for coupling of non-target proteins. Immobilization levels of 4000-10000 RU were obtained. Unmodified dextrane in one of the flow cells was used as reference surface.
(§3) The pyridinone was diluted from 10 mM DMSO stock solution to a final concentration of 30 μM in running buffer (6.7 mM phosphate buffer (9.6 g Na2HPO4.2H2O, 1.7 G KH2PO4, 4.1 g NaCl, 100 mL H2O), 3.4 mM EDTA, 0.01% TWEEN, 5% DMSO, pH 7.4) so that the concentrations of DMSO and buffer substances were carefully matched. The compounds were injected (flow rate was 30 μL/min at 25° C.) and the binding of the compounds to the immobilized chaperone proteins was observed on real time. The surface was regenerated by injection of 10 mM glycin.HCl, pH 2.0 and then washed with a 1:1 mixture of DMSO and water.
(§4) For screening of the affinity of the compounds of PapD and FimC, the pyridinone was injected (flow rate was 30 μL/min at 25° C.) at a concentration of 30 μM in triplicate. […]
as §3, with “KH2PO2PO4,” for “KH2PO4,”, “water. […]” for “water.”
(§5) A direct binding assay on BIACORE 3000 was employed to test the affinity of the following pyridinone: [drawing 76] for periplasmic chaperones PapD and FimC. Methods

[2] = molecular target: periplasmic chaperone FimC (Escherichia coli, UniProt P31697); test: Direct binding assay on BIACORE 3000, immobilized FimC; settings: pyridinone 30 uM, 25° C., 30 μL/min, triplicate, Sensor Chip CM5
Chain of periplasmic chaperone FimC (P31697 37-241): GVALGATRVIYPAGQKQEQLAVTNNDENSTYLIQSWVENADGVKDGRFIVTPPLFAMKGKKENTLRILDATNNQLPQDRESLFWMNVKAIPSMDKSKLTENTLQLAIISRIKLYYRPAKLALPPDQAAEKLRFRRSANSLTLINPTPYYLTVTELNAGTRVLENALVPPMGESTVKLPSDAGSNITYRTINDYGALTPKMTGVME
Protocol: as §1, §2, §3, §4
as §3, with “KH2PO2PO4,” for “KH2PO4,”, “water. […]” for “water.”
as §5

Chain of periplasmic chaperone PapD (P15319 22-239): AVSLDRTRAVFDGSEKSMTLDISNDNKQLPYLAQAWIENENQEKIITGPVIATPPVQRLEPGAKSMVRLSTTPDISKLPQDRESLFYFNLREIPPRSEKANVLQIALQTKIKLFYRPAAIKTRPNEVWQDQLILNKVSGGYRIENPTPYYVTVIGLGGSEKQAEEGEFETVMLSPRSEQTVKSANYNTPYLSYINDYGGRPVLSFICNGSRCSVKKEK

Row | SMILES | Response Units PapD 30 uM [1] | Response Units FimC 30 uM [2]
1 | O=C(O)[C@@H]1CSc2cc(Cc3cccc4ccccc34)cc(=O)n21 [H_Pyr_COOH] | 6,760176162 Response Units | 11,69075072 Response Units
2 | Cc1cc(=O)n2c(c1C)SC[C@H]2C(=O)O [Me_Me_Pyr_COOH] | 1,676914034 Response Units | 6,535311642 Response Units
3 | Cc1cc(=O)n2c(c1-c1ccccc1)SC[C@H]2C(=O)O [Me_Ph_Pyr_COOH] | 3,90056354 Response Units | 6,753367367 Response Units
4 | O=C(O)[C@@H]1CSc2c(-c3ccccc3)c(Cc3cccc4ccccc34)cc(=O)n21 [Ph_Pyr_COOH] | 46,22397585 Response Units | 60,71350348 Response Units
